{"source": "patent US11779559B2", "about": "“Compositions for treating fungal and bacterial biofilms and methods of using the same” (priority 2017, dated 2023)", "test_system": "fungal and bacterial biofilms", "assay": "Biofilm assays (sustained inhibition and disruption), fungal and bacterial biofilms", "assay_type": "cell-based", "details": "single component on its own", "experimental": "Two types of biofilm assays were performed: a sustained inhibition assay and a disruption assay. The sustained inhibition assay assesses the compound's ability to prevent biofilm development throughout all stages of biofilm formation, while the disruption assay assesses the compound's ability to break up an existing mature biofilm. These assays are described in detail in the following article: Lohse, M. B., Gulati, M., Valle Arevalo, A., Fishburn, A., Johnson, A. D., and Nobile, C. J. (2017) Assessment and optimizations of Candida albicans in vitro biofilm assays. Antimicrobial Agents and Chemotherapy 61: e02749-16.\nFor fungal biofilm assays, all solutions were prepared in RPMI 1640 medium. All bacterial biofilm solutions were prepared in Trypic Soy Broth (TSB), supplemented with 1% glucose (henceforth referred to as TSB-G). All subsequent procedures were performed in a manner that maintained sterility. A solution of each amino acid to be tested was prepared in weight to volume concentrations ranging from 0.1-5.0%. Amino acids were also tested in combinations. Compound solutions were homogenized with gentle agitation in the dark (4° C., 24 hours) before use.\nAll biofilm assays were performed using 384-well non-tissue culture treated polystyrene plates. The fungal species tested are as follows: Candida albicans, Candida guilhermondii, Candida parapsilosis, Candida glabrata, Candida tropicalis, Candida dubliniensis, and Candida auris. The bacterial species tested are as follows: Staphylococcus aureus (standard wild type and methicillin-resistant strain USA300), Escherichia coli, Pseudomonas aeruginosa and Staphylococcus epidermidis.\nFungal strains were streaked on Yeast Peptone Dextrose (YPD) agar plates and incubated at 30° C. for 48 hours. A single colony from each strain to be tested was inoculated into YPD broth and grown for 12 hours, at 30° C., shaking at 225 rpm. For the fungal biofilm inhibition assay, 1 μl of saturated overnight cell culture was added to either 80 μL of RPMI-1640 or RPMI-1640 supplemented with the amino acid compound solution to be tested, in a 384-well plate. The cells were allowed to adhere to the plate for 90 minutes at 37° C. with shaking (350 rpm). Loosely bound cells were washed once with phosphate buffered saline (PBS) and 80 ul of RPMI-1640, or RPMI-1640 supplemented with the amino acid compound solution was added to the plate. The plate was further incubated for 24 hours at 37° C. with shaking (350 rpm). Media was carefully aspirated and the biofilm was measured by optical density at 600 nm. Twelve replicates were performed for each tested condition and the reported values are normalized to the control (RPMI-1640 media only). For the fungal biofilm disruption assays, 80 μL of RPMI-1640 was added to the plate, along with 1 μL of overnight cell culture. The cells were allowed to adhere to the plate for 90 minutes at 37° C. with shaking (350 rpm). Loosely bound cells were washed once with PBS and 80 μL of RPMI-1640 was added to the plate. The plate was further incubated for 24 hours at 37° C. with shaking (350 rpm). Media was carefully aspirated from the mature biofilm and 80 μL of RPMI-1640, or RPMI-1640 supplemented with the amino acid compound solution to be tested, was gently added to the plate. The plate was further incubated for 24 hours at 37° C. with shaking (350 rpm). Media was carefully aspirated and the biofilm was measured by optical density at 600 nm. Twelve replicates were performed for each tested condition and the reported values are normalized to the control (RPMI-1640 media only).\nBacterial strains were streaked on Blood Agar plates (5% sheep blood in Tryptic Soy Agar) and incubated at 37° C. for 24 hours. A single colony from each strain to be tested was inoculated in a TSB broth and grown for 12 hours, at 37° C. with shaking (225 rpm)."}
{"smiles": "N[C@@H](CC(=O)O)C(=O)O", "note": "[Aspartic Acid, L-aspartic acid]", "values": [{"measurement": "Effect on biofilms", "value": "very active against biofilms"}]}
